Source: patent publication US12479818B2, “Treatment of fibrosis with IRE1 small molecule inhibitors” (Cornell University, priority 2019, dated 2025)

Target: IRE1a (Homo sapiens, UniProt O75460)
Assay: IRE1a Endoribonuclease Nanoluciferase Assay (XBP1 luciferase reporter in 293T cells)
Assay type: cell-based
Design: endogenous in cells; host or cells: 293T
Settings: XBP1 nanoluciferase reporter in 293T cells, ER stressor; tested as the salt named
Method: Compounds disclosed herein were assessed for disruption of IRE1 signaling using a IRE1a Endoribonuclease Nanoluciferase Assay. […] About 24 hours later, the cells were transfected with Effectene. In a 15 mL tube, the following was added: 2 ug XBP1 luciferase reporter plasmid (PGK-Luc2-P2A-XBP1u-Nanoluciferase-PEST); 300 ul EC buffer; and 16 ul Enhancer, followed by incubation at room temp for 5 minutes. […] 2.6 mL cDMEM media was added. Old media was aspirated from the cells, followed by addition of 7 mL fresh media. Full transfection mixture was added dropwise to cells. Cells were incubated for 6 hours, followed by trypsinization, centrifugation and resuspension in 11 mL fresh cDMEM media. 100 μL of cells were plated per a well in a 96 well plate. A day later, ER stressors of choice +/− inhibitors were added. To harvest, media was aspirated from cells completely, then 50 uL 1× passive lysis buffer (Promega: E1941) was added per well and put on shaker (300 rpm) for 30 minutes at room temperature. […] 15 uL OneGlo (nanoluciferase kit, Promega N1630) was added. Plates were spun down, placed on shaker (300 rpm) for 10 minutes. Plates were read on luminometer, 1000 ms integration time per well. 15 uL Stop and Glo (nanoluciferase kit) was added. Plates were spun down, placed on shaker (300 rpm) for 10 minutes. Plates were read on luminometer, 1000 ms second integration time per well.

Chain of IRE1a (O75460 19-977): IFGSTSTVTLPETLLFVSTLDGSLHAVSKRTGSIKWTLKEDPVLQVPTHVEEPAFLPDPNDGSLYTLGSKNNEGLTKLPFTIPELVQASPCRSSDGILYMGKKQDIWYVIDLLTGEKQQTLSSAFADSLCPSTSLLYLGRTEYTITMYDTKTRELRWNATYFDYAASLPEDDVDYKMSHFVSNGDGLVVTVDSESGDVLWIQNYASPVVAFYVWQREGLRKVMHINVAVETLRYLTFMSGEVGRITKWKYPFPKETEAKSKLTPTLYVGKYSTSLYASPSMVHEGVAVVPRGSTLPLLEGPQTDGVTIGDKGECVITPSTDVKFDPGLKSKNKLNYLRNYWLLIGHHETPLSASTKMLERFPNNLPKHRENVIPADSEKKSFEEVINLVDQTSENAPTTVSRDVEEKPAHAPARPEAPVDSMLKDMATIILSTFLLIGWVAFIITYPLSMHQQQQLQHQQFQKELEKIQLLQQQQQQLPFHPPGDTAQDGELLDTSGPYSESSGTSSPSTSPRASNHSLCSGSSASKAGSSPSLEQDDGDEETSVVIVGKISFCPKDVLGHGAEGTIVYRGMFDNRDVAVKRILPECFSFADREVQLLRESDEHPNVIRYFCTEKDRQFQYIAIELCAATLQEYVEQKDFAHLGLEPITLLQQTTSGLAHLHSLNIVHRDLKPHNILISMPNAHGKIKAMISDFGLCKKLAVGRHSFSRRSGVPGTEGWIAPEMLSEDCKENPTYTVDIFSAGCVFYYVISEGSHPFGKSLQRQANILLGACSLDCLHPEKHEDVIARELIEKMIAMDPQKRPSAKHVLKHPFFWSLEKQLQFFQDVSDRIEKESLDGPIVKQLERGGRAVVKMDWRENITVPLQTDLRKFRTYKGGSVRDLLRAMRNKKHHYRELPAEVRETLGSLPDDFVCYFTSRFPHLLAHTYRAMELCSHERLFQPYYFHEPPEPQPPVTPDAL

Structure (SMILES)	EC50
CCc1cc(-c2ccc(NS(=O)(=O)c3ccccc3Cl)c(F)c2)cc2cnc(N[C@H]3CC[C@H](N)CC3)nc12 [Compound 24, N-(4-(2-(((1r,4r)-4-aminocyclohexyl)amino)-8-ethylquinazolin-6-yl)-2-fluorophenyl)-2-chlorobenzene-sulfonamide]	< 5 nM
N[C@H]1CC[C@H](Nc2ncc3cc(-c4ccc(NS(=O)(=O)c5ccccc5Cl)cc4)ccc3n2)CC1 [Compound 26, N-(4-(2-(((lr,4r) 4-aminocyclohexyl)amino)quinazolin-6-yl)phenyl)-2-chlorobenzene-sulfonamide]	< 5 nM
CCc1cc(-c2ccc(NS(=O)(=O)c3ccccc3Cl)cc2F)cc2cnc(N[C@H]3CC[C@H](N)CC3)nc12 [Compound 35, N-(4-(2-(((lr,4r)-4-aminocyclohexyl)amino)-8-ethylquinazolin-6-yl)-3-f1uorophenyl)-2-chlorobenzene-sulfonamide]	< 5 nM
N[C@H]1CC[C@H](Nc2ncc3cc(-c4ccc(NS(=O)(=O)c5ccccc5Cl)cc4F)ccc3n2)CC1 [Compound 48, N-(4-(2-(((1r,4r)-4-aminocyclohexyl)amino)quinazolin-6-yl)-3-fluorophenyl)-2-chlorobenzene-sulfonamide]	5 to 50 nM
N[C@H]1CC[C@H](Nc2ncc3cc(-c4ncc(NS(=O)(=O)c5ccccc5Cl)cc4F)ccc3n2)CC1 [Compound 51, N-(6-(2-(((1r,4r)-4-aminocyclohexyl)amino)quinazolin-6-yl)-5-fluoropyridin-3-yl)-2-chlorobenzene-sulfonamide]	50 to 100 nM
N[C@H]1CC[C@H](Nc2ncc3cc(-c4cc(F)c(NS(=O)(=O)c5ccccc5Cl)cc4F)ccc3n2)CC1 [Compound 53, N-(4-(2-(((1r,4r)-4-aminocyclohexyl)amino)quinazolin-6-yl)-2,5-difluorophenyl)-2-chlorobenzene-sulfonamide]	< 5 nM
N[C@H]1CC[C@H](Nc2ncc3cc(-c4cnc(NS(=O)(=O)c5ccccc5Cl)c(F)c4)ccc3n2)CC1 [Compound 54, N-(5-(2-(((1r,4r)-4-aminocyclohexyl)amino)quinazolin-6-yl)-3-fluoropyridin-2-yl)-2-chlorobenzene-sulfonamide]	5 to 50 nM
N[C@H]1CC[C@H](Nc2ncc3cc(-c4ccc(NS(=O)(=O)c5ccccc5Cl)c(F)c4F)ccc3n2)CC1 [Compound 56, N-(4-(2-(((1r,4r)-4-aminocyclohexyl)amino)quinazolin-6-yl)-2,3-difluorophenyl)-2-chlorobenzene-sulfonamide]	< 5 nM
N[C@H]1CC[C@H](Nc2cc3ccc(-c4ccc(NS(=O)(=O)c5ccccc5Cl)c(F)c4)cc3cn2)CC1 [Compound 57, N-(4-(3-(((1r,4r)-4-aminocyclohexyl)amino)isoquinolin-7-yl)-2-fluorophenyl)-2-chlorobenzene-sulfonamide]	< 5 nM
CCc1cc(-c2ccc(NS(=O)(=O)c3ccccc3Cl)c(F)c2)cc2cnc(N[C@H]3CC[C@H](NC(C)=O)CC3)nc12 [Compound 59, N-((1r,4)-4-((6-(4-((2-chlorophenyl)sulfonamido)-3-fluorophenyl)-8-ethylquinazolin-2-yl)amino)cyclohexyl) acetamide]	50 to 100 nM
CCc1cc(-c2ccc(NS(=O)(=O)c3ccccc3Cl)c(F)c2)cc2cnc(N[C@H]3CC[C@H](NC)CC3)nc12 [Compound 60, 2-chloro-N-(4-(8-ethyl-2-(((1r,4)-4-(methylamino)cyclohexyl)amino)quinazolin-6-yl)-2-fluorophenyl) benzene-sulfonamide]	< 5 nM
CCc1cc(-c2ccc(NS(=O)(=O)c3ccccc3Cl)nn2)cc2cnc(N[C@H]3CC[C@H](NC)CC3)nc12 [Compound 61, 2-chloro-N-(6-(8-ethyl-2-(((lr,4r)-4-(methylamino)cyclohexyl)amino)quinazolin-6-yl)pyridazin-3-yl)benzene-sulfonamide]	< 5 nM
N[C@H]1CC[C@H](Nc2ncc3cc(-c4c(F)cc(NS(=O)(=O)c5ccccc5Cl)cc4F)ccc3n2)CC1 [Compound 62, N-(4-(2-(((1r,4r)-4-aminocyclohexyl)amino)quinazolin-6-yl)-3,5-difluorophenyl)-2-chlorobenzene-sulfonamide]	5 to 50 nM
CCc1cc(-c2ccc(NS(=O)(=O)c3ccccc3Cl)nn2)cc2cnc(N[C@H]3CC[C@H](N(C)C)CC3)nc12 [Compound 64, 2-chloro-N-(6-(2-(((1r,4r)-4-(dimethylamino)cyclohexyl)amino)-8-ethylquinazolin-6-yl)pyridazin-3-yl)benzene-sulfonamide]	< 5 nM

Now from value to molecule:

EC50	Structure (SMILES)
< 5 nM	CCc1cc(-c2cnc(NS(=O)(=O)c3ccccc3Cl)nc2C)cc2cnc(N[C@H]3CC[C@H](N)CC3)nc12 [Compound 23, N-(5-(2-(((1r,4r)-, 4-aminocyelohexyl)amino)-8-ethylquinazolin-6-yl)-4-methylpyrimidin-2-yl)-2-ehlorobenzene-sulfonamide]
< 5 nM	CCc1cc(-c2ccc(NS(=O)(=O)c3ccccc3Cl)nc2)cc2cnc(N[C@H]3CC[C@H](N)CC3)nc12 [Compound 27, N-(5-(2-(((lr,4r)-4-aminocyclohexyl)amino)-8-ethylquinazolin-6-yl)pyridin-2-yl)-2-chlorobenzene-sulfonamide]
< 5 nM	CCc1cc(-c2ccc(NS(=O)(=O)c3ccccc3Cl)cn2)cc2cnc(N[C@H]3CC[C@H](N)CC3)nc12 [Compound 28, N-(6-(2-(((1r,4r)-4-aminocyclohexyl)amino)-8-ethylquinazolin-6-yl)pyridin-3-yl)-2-chlorobenzene-sulfonamide]
100 to 10000 nM	CCc1cc(-c2cc(NS(=O)(=O)c3ccccc3Cl)n[nH]2)cc2cnc(N[C@H]3CC[C@H](N)CC3)nc12 [Compound 29, N-(5-(2-(((lr,4r)-4-aminocyclohexyl)amino)-8-ethylquinazolin-6-yl)-1H-pyrazol-3-yl)-2-chlorobenzene-sulfonamide]
< 5 nM	CCc1cc(-c2ccc(NS(=O)(=O)c3ccccc3Cl)nn2)cc2cnc(N[C@H]3CC[C@H](N)CC3)nc12 [Compound 32]
< 5 nM	CCc1cc(-c2ncc(NS(=O)(=O)c3ccccc3Cl)cn2)cc2cnc(N[C@H]3CC[C@H](N)CC3)nc12 [Compound 33, N-(2-(2-(((1r,4r)-4-aminocyclohexyl)amino)-8-ethylquinazolin-6-yl)pyrimidin-5-yl)-2-chlorobenzene-sulfonamide]
5 to 50 nM	CCc1cc(NS(=O)(=O)c2ccccc2Cl)ccc1-c1cc(CC)c2nc(N[C@H]3CC[C@H](N)CC3)ncc2c1 [Compound 34, N-(4-(2-(((1r,4r)-4-aminocyclohexyl)amino)-8-ethylquinazolin-6-yl)-3-ethylphenyl)-2-chlorobenzene-sulfonamide]
< 5 nM	CCc1cc(-c2cc(NS(=O)(=O)c3ccccc3Cl)no2)cc2cnc(N[C@H]3CC[C@H](N)CC3)nc12 [Compound 44, N-(5-(2-(((1r,4r)-4-aminocyclohexyl)amino)-8-ethylquinazolin 6-yl)isoxazol-3-yl)-2-chlorobenzene-sulfonamide]
< 5 nM	CCc1cc(-c2cnc(NS(=O)(=O)c3ccccc3Cl)nc2OC)cc2cnc(N[C@H]3CC[C@H](N)CC3)nc12 [Compound 46, N-(5-(2-(((1r,4r)-4-aminocyclohexyl)amino)-8-ethylquinazolin-6-yl)-4-methoxypyrimidin-2-yl)-2-chlorobenzene-sulfonamide]
5 to 50 nM	CCCc1cc(-c2cc(NS(=O)(=O)c3ccccc3Cl)nn2C)cc2cnc(N[C@H]3CC[C@H](N)CC3)nc12 [Compound 47, N-(5-(2-(((1r,4r)-4-aminocyclohexyl)amino)-8-propylquinazolin-6-yl)-1-methyl-1H-pyrazol-3-yl)-2-chlorobenzene-sulfonamide]
< 5 nM	CCc1cc(-c2ncc(NS(=O)(=O)c3ccccc3Cl)cc2F)cc2cnc(N[C@H]3CC[C@H](N)CC3)nc12 [Compound 52, N-(6-(2-(((1r,4r)-4-aminocyclohexyl)amino)-8-ethylquinazolin-6-yl)-5-fluoropyridin-3-yl)-2-chlorobenzene-sulfonamide]
< 5 nM	CCc1cc(-c2cnc(NS(=O)(=O)c3ccccc3Cl)c(F)c2)cc2cnc(N[C@H]3CC[C@H](N)CC3)nc12 [Compound 55, N-(5-(2-(((1r,4r)-4-aminocyclohexyl)amino)-8-ethylquinazolin-6-yl)-3-fluoropyridin-2-yl)-2-chlorobenzene-sulfonamide]
5 to 50 nM	CCc1cc(-c2nnc(NS(=O)(=O)c3ccccc3Cl)cc2OC)cc2cnc(N[C@H]3CC[C@H](N)CC3)nc12 [Compound 65, N-(6--(2-(((lr,4r)-4-aminocyclohexyl)amino)-8-ethylquinazolin-6-yl)-5-methoxypyridazin-3-yl)-2-chlorobenzene-sulfonamide]
50 to 100 nM	CCc1cc(-c2cc(OC)c(NS(=O)(=O)c3ccccc3Cl)nn2)cc2cnc(N[C@H]3CC[C@H](N)CC3)nc12 [Compound 66, N-(6-(2-(((1r,4r)-4-aminocyclohexyl)amino)-8-ethylquinazolin-6-yl)-4-methoxypyridazin-3-yl)-2-chlorobenzene-sulfonamide]
5 to 50 nM	CCc1cc(-c2nnc(NS(=O)(=O)c3ccccc3Cl)cc2C)cc2cnc(N[C@H]3CC[C@H](N)CC3)nc12 [Compound 67, N-(6-(2-(((lr,4r)-4-aminocyclohexyl)amino)-8-ethylquinazolin-6-yl)-5-methylpyridazin-3-yl)-2-chlorobenzene-sulfonamide]
